According to US6414001B2, “Ether and amide compounds preparation thereof composition containing same and use thereof as antidiadetics” (Kotobuki Pharmaceutical Co. Ltd., priority 2000, dated 2002):

Tests used:
db/db mice = experiment: Hypoglycemic activity in mice; format: in vivo; conditions: for inhibition in vivo at 30 mg/kg: 30 mg/kg once a day for four consecutive days; for inhibition in vivo at 3 mg/kg: 3 mg/kg once a day for four consecutive days
Description: Hypoglycemic Activity in Mice
Test compounds were suspended in 0.5% Methyl cellulose solution and administered (p.o.) to db/db mice (obtained from Nihon Clea) at a range of 3-30 mg/kg once a day for four consecutive days. Troglitazone (300 mg/kg) was also administrated for control.

[1] = Mus musculus, po, 10 mg/kg once a day for four consecutive days, suspended in 0.5% methyl cellulose
[2] = Mus musculus, po, suspended in 0.5% methyl cellulose

Molecule: COc1ccc(-c2nc(CCOc3ccc(NS(=O)(=O)C(F)(F)F)cc3)c(C)o2)cc1 [Compound 18]
- inhibition in vivo at 10 mg/kg (db/db mice; [1]): 34.7%

Molecule: Cc1oc(-c2ccccc2)nc1CC(=O)Nc1ccc(C(=O)O)c(O)c1 [Compound 52]
- inhibition in vivo at 30 mg/kg (db/db mice; [2]): 10.5%

Molecule: Cc1oc(-c2ccccc2)nc1CC(=O)Nc1ccc(NS(=O)(=O)C(F)(F)F)cc1 [Compound 48]
- melting point: 147 to 149 °C
- inhibition in vivo at 30 mg/kg (db/db mice; [2]): 65.4%

Molecule: Cc1oc(-c2ccccc2)nc1CCOc1ccc(NS(=O)(=O)C(F)(F)F)c(O)c1 [Compound 42]
- inhibition in vivo at 10 mg/kg (db/db mice; [1]): 29.6%

Molecule: Cc1oc(-c2cc(C(C)(C)C)c(OCC(=O)O)c(C(C)(C)C)c2)nc1CCOc1ccc(NS(=O)(=O)C(F)(F)F)cc1 [Compound 68]
- inhibition in vivo at 3 mg/kg (db/db mice; [2]): 21.2%

Molecule: 4-[2-(5-Methyl-2-phenyl-1,3-oxazole-4-yl)ethoxy]benzene trifluoromethyl sulfonamide [Compound 2]
- Hypoglycemic activity (%) (db/db mice; p.o., 10 mg/kg once a day for four consecutive days, suspended in 0.5% methyl cellulose): 49.0%

Molecule: CN(CCOc1ccc(NS(=O)(=O)C(F)(F)F)cc1)c1ccccn1 [Compound 11, 4-[2-(N-Methyl-N-2-pyridyl)aminoethoxy]benzene trifluoromethanesulfonamide]
- inhibition in vivo at 10 mg/kg (db/db mice; [1]): 15.4%

Molecule: Cc1oc(-c2ccccc2)nc1CCOc1ccc(CNS(=O)(=O)C(F)(F)F)cc1 [Compound 9, 2-[4-(2-(5-Methyl-2-phenyl-1,3-oxazole-4-yl)ethoxy)benzyl]trifluoromethylsulfonamide]
- melting point: 113 to 115 °C
- inhibition in vivo at 10 mg/kg (db/db mice; [1]): 24%

Molecule: Cc1c(C)c2c(c(C)c1O)CCC(C)(COc1ccc(CC3SC(=O)NC3=O)cc1)O2 (stereo not shown) [Troglitazone, reference compound]
- inhibition in vivo at 300 mg/kg (db/db mice; Mus musculus, po, 300 mg/kg, control drug): 34%

Molecule: CCOc1cc(OCCc2nc(-c3ccccc3)oc2C)ccc1C(=O)O [Compound 31, 2-Ethoxy-4-[2-(5-methyl-2-phenyl-1,3-oxazole-4-yl)ethoxy]benzoic acid]
- inhibition in vivo at 30 mg/kg (db/db mice; [2]): 19%

Molecule: Cc1oc(-c2ccc(O)c(C(C)(C)C)c2)nc1CCOc1ccc(NS(=O)(=O)C(F)(F)F)cc1 [Compound 70]
- inhibition in vivo at 30 mg/kg (db/db mice; [2]): 51%

Molecule: Cc1oc(-c2cc(C(C)(C)C)c(O)c(C(C)(C)C)c2)nc1CCOc1ccc(NS(=O)(=O)C(F)(F)F)cc1 [Compound 19]
- inhibition in vivo at 10 mg/kg (db/db mice; [1]): 12.8%

Molecule: Cc1oc(-c2ccc(Cl)cc2)nc1CCOc1ccc(NS(=O)(=O)C(F)(F)F)cc1 [Compound 58]
- inhibition in vivo at 3 mg/kg (db/db mice; [2]): 43.4%

Molecule: Cc1oc(-c2ccccc2)nc1CCOc1ccc(NC(=O)C(=O)O)cc1 [Compound 8, 2-[4-(2-(5-Methyl-2-phenyl-1,3-oxazole-4-yl)ethoxy)phenyl]amino-2-oxo-acetic acid]
- melting point: 196 to 198 °C
- inhibition in vivo at 10 mg/kg (db/db mice; [1]): 26%

Molecule: CCc1ccc(CCOc2ccc(NS(=O)(=O)C(F)(F)F)cc2)nc1 [Compound 10, 4-[2-(5-Ethylpyridine-2-yl)ethoxy]benzene trifluoromethylsulfonamide]
- melting point: 76 to 78 °C
- inhibition in vivo at 10 mg/kg (db/db mice; [1]): 32.4%

Molecule: Cc1oc(-c2ccc(OCC(=O)O)cc2)nc1CCOc1ccc(NS(=O)(=O)C(F)(F)F)cc1 [Compound 67]
- melting point: 167 to 168 °C
- inhibition in vivo at 3 mg/kg (db/db mice; [2]): 33.1%

Molecule: COC(=O)c1ccc(OCCc2nc(-c3ccccc3)oc2C)cc1O [Compound 25, 2-Hydroxy-4-[2-(5-methyl-2-phenyl-1,3-oxazole-4-yl)ethoxy]benzoic acid methyl ester]
- melting point: 133 to 134 °C

Molecule: CCOc1cc(OCCc2nc(-c3ccccc3)oc2C)ccc1NS(=O)(=O)C(F)(F)F [Compound 40]
- melting point: 133 to 135 °C
- inhibition in vivo at 30 mg/kg (db/db mice; [2]): 53.4%

Molecule: Cc1oc(-c2ccc(F)cc2)nc1CCOc1ccc(NS(=O)(=O)C(F)(F)F)cc1 [Compound 59]
- inhibition in vivo at 3 mg/kg (db/db mice; [2]): 18.4%
